From US10669238B2, “Irreversible bruton's tyrosine kinase inhibitor” (HEFEI INSTITUTES OF PHYSICAL SCIENCE, CHINESE ACADEMY OF …, priority 2016, dated 2020)

Tested on: U2932 (B-cell lymphoma cells)
Assay: Cell cycle distribution by flow cytometry in U2932
Format: cell-based
Conditions: U2932, 10 μM, 48 hours
Experimental: Effect of Compound 1 on cell cycle distribution was examined respectively in Pfeiffer (human diffuse large cell lymphoma B lymphocytes, purchased from Cobioer Biosciences Co., LTD (Nanjing)) and U2932 (B-cell lymphoma cells, purchased from ATCC) cells in order to study the growth cycle to which the cells were blocked upon compound administration. The above cells were treated with various concentrations (0.5 μM, 1 μM, 5 μM, 10 μM) of Compound 1, 10 μM of PC132765 and 10 μM of Compound 6 (FIG. 4a) or 1 μM of Compound 6 (FIG. 4b) for 48 hours, and then cells were collected and washed twice with 1×PBS buffer, and fixed with 75% ethanol at −20° C. for 24 hours, washed again with 1×PBS buffer twice, followed by addition of 0.5 mL 1×PBS buffer and 0.5 mL of PI dyeing liquor (purchased from BD Bioscience, USA), and then the cells were placed in the dark at 37° C. for dyeing 15 minutes and the cell cycle distribution was detected by flow cytometry (BD FACS Calibur).
Experiments shown in FIGS. 4a-4b reflected that Compound 1 influenced the cell cycle of both two cell strains.

Compound: C=CC(=O)Nc1cc(Nc2cc(-c3cccc(NC(=O)c4ccc(C(C)(C)C)cc4)c3C)cn(C)c2=O)ccc1C(=O)N1CCOCC1 [Compound 1, N-(3-(5-((3-acrylamide-4-(morpholin-4-carbonyl)phenyl)amino)-1-methyl-6-oxo-1,6-dihydropyridin-3-yl)-2-methylphenyl)-4-(tert-butyl)benzamide]
- effect on cell cycle: significant cell cycle arrest in G0-G1
